# Results from patent publication US9200046B2, “Reporter system for high throughput screening of compounds and uses thereof” (priority 2011, dated 2015).
# Several values for one entry are separate records, joined by “and”; a condition that tells them apart may be missing. Equal entries are not always repeated. Structures can show the parent of a compound that is named as a salt. Where two headings read alike, the source gives them in different places.
# Molecular target: Nrf2-Keap1 complex (Homo sapiens, UniProt Q14145)
# Assay: cell-based
# Assay type: cell-based
# Conditions: for activation at 16 µM / activation at 32 µM: 3 h; for activation at 16 µM: read-out: Activation 100 nL; for activation at 32 µM: read-out: Activation 200 nL
# [1] = Table 1A, 100 nL compound, screen run at 16 and 32 μM, 3 hr
# [2] = Table 1A, 200 nL compound, screen run at 16 and 32 μM, 3 hr
# [3] = Table 2, 100 nL compound, screen run at 16 and 32 μM, 3 hr
# [4] = Table 2, 200 nL compound, screen run at 16 and 32 μM, 3 hr
# Chain of Nrf2-Keap1 complex (Q14145 whole entry, one chain of several): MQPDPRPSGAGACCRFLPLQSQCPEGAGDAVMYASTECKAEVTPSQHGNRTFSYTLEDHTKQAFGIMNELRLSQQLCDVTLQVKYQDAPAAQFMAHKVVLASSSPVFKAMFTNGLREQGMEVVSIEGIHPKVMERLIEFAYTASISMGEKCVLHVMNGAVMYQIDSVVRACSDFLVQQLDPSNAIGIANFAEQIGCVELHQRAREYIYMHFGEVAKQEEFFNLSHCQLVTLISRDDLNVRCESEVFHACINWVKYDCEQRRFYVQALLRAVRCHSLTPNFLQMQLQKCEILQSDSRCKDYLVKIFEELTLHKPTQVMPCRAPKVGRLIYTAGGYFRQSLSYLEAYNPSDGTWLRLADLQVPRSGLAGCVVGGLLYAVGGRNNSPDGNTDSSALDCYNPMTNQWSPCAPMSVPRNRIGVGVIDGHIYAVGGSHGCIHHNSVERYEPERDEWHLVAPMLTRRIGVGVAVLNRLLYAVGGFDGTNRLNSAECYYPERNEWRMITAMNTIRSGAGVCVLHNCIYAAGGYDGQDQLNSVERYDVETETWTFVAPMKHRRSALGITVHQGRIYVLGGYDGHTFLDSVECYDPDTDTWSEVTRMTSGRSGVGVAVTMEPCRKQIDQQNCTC
Molecule,activation at 16 µM [%],activation at 32 µM [%],Activation 100 nL [%],Activation 200 nL [%],100 nL (luminescence) [3],200 nL (luminescence) [4],also measured
CNC(=O)Oc1cccc2c1OC(C)(C)O2 [BENDIOCARB],87,101,–,–,–,–,100 nL (luminescence): 1532; 200 nL (luminescence): 2760
O=C1C=CC(=O)c2c(O)cccc21 [JUGLONE],58,95,–,–,–,–,–
O=C(/C=C/c1ccccc1)c1ccc(O)cc1 [4′-HYDROXYCHALCONE],217,76,–,–,–,–,100 nL (luminescence): 3674; 200 nL (luminescence): 1488
"NC(=O)c1ccc[n+]([C@@H]2O[C@H](COP(=O)([O-])OP(=O)(O)OC[C@H]3O[C@@H](n4cnc5c(N)ncnc54)[C@H](O)[C@@H]3O)[C@@H](O)[C@H]2O)c1 [NADIDE, reference compound]",31,16,–,–,–,–,100 nL (luminescence) [1]: 640; 200 nL (luminescence) [2]: 712
METHYL7-DESHYDROXYPYROGALLIN-4-CARBOXYLATE,–,–,466,147,4444,3792,–
O=C1C(O)=C(O)C(=O)C(O)=C1O [TETROQUINONE],26,27,–,–,908,720,–
COc1ccc2c(c1)OCC(Cc1ccc(O)c(OC)c1)C2=O (stereo not shown),–,–,–,–,–,–,100 nL (luminescence): 1416 and 900
O=C1OC(=O)[C@H]2[C@@H]1[C@@H]1CC[C@H]2O1 [NORCANTHARIDIN],–,–,45,10,756,572,–
CC1(C)C2(Cl)C(Cl)C(Cl)C(Cl)(C(Cl)Cl)C1(Cl)C2Cl (stereo not shown) [STROBANE],388,235,–,–,5556,5836,–
"O=c1c(O)c(-c2ccc(O)cc2)oc2cc(O)cc(O)c12 [kaempferol, 3,5,7,4′-tetrahydroxyflavone]",–,–,–,–,–,–,fold less effective than quercetin and fisetin (flavone SAR): 2.5 fold
"Nc1ncnc2c1ncn2[C@@H]1O[C@H](CO)[C@@H](O)[C@H]1O [ADENOSINE, reference compound]",61,20,–,–,–,–,100 nL (luminescence): 1100; 200 nL (luminescence): 760; hit strength in the screen (words): modest hits
"COc1cc([C@@H]2c3cc4c(cc3[C@@H](O[C@@H]3O[C@@H]5CO[C@@H](C)O[C@H]5[C@H](O)[C@H]3O)[C@H]3COC(=O)[C@H]23)OCO4)cc(OC)c1O [ETOPOSIDE, reference compound]",40,89,–,–,1180,1484,–
COc1ccc2c(c1)OCc1c-2oc2cc(OC)ccc12 [DEHYDROVARIABILIN],86,39,–,–,1672,916,–
O=c1ccn([C@@H]2O[C@H](COP(=O)([O-])OP(=O)([O-])OP(=O)([O-])O)[C@@H](O)[C@H]2O)c(=O)[nH]1.[Na+].[Na+].[Na+] [URIDINETRIPHOSPHATETRISODIUM],–,–,28,16,612,708,–
COC(=O)c1cc(OC)c(=O)c2c(OC)c(OC)ccc2c1 [METHYL7-DESOXYPURPUROGALLIN-7-CARBOXYLATETRIMETHYLETHER],–,–,516,105,8248,1932,–
O=C(/C=C/C(=O)Oc1ccccc1C(=O)O)Oc1ccccc1C(=O)O [BISSALICYLFUMARATE],338,156,–,–,–,–,–
Oc1ccc2c(c1)OCC1c3cc4c(cc3OC21)OCO4 (stereo not shown) [MAACKIAIN],74,95,–,–,–,–,100 nL (luminescence) [1]: 1492; 200 nL (luminescence) [2]: 1772
"O=c1cc(-c2ccc(O)c(O)c2)oc2cc(O)cc(O)c12 [Luteolin, 5,7,3′,4′-tetrahydroxyflavone]",–,–,–,–,–,–,hit strength in the screen (words): much lesser active than fisetin and quercetin; hit strength in the screen (words) (listed as luteolin): very poor Nrf2 activator
Oc1cc(O)c2c(c1)O[C@H](c1cc(O)c(O)c(O)c1)[C@H](O)C2 [EPIGALLOCATECHIN],33,-20,–,–,864,28,–
"COc1ccc2c(c1)[C@@]1(C)CCC(=O)C[C@H]1CC2 [5beta-12-METHOXY-4,4-BISNOR-8,11,13-PODOCARPATRIEN-3-ONE]",46,13,–,–,–,–,100 nL (luminescence) [1]: 768; 200 nL (luminescence) [2]: 636
"CCOC(=O)CCC(=O)O[C@H]1[C@H](O[C@@H]2[C@@H](C)[C@H](O[C@H]3C[C@@](C)(OC)[C@@H](O)[C@H](C)O3)[C@@H](C)C(=O)O[C@H](CC)[C@@](C)(O)[C@H](O)[C@@H](C)C(=O)[C@H](C)C[C@@]2(C)O)O[C@H](C)C[C@@H]1N(C)C [ERYTHROMYCINETHYLSUCCINATE, reference compound]",41,-20,–,–,–,–,–

Molecule,activation at 16 µM [%],activation at 32 µM [%],Activation 100 nL [%],Activation 200 nL [%],100 nL (luminescence) [3],200 nL (luminescence) [4],also measured
AVOCADYNOFURAN,–,–,25,29,582,1008,–
"COC(=O)C(N)CS (stereo not shown) [MECYSTEINEHYDROCHLORIDE, reference compound]",82,216,–,–,–,–,100 nL (luminescence): 2028; 200 nL (luminescence): 3064
"COC(=O)Nc1nc2ccc(Sc3ccccc3)cc2[nH]1 [FENBENDAZOLE, reference compound]",224,-24,–,–,–,–,100 nL (luminescence) [1]: 4908; 200 nL (luminescence) [2]: 92
CC1(C)[N+]([O-])=[N+]([O-])C1(C)Br (stereo not shown),–,–,55,83,1308,1976,–
1(2)alpha-EPDXYDEOXYDIHYDROGEDUNIN,–,–,29,25,752,1028,–
CC1=C(CC(=O)O)c2cc(F)ccc2/C1=C\c1ccc([S+](C)[O-])cc1 (stereo not shown) [reference compound],114,188,–,–,–,–,Neh2-luc reporter activation: 200%; 100 nL (luminescence) [1]: 2692; 200 nL (luminescence) [2]: 2710
"OC[C@H]1O[C@H]([S-])[C@H](O)[C@@H](O)[C@@H]1O.[Au+] [AUROTHIOGLUCOSE, reference compound]",–,–,27,1,604,360,–
"COC(=O)CC[C@@H](C)[C@H]1CC[C@H]2[C@@H]3[C@H](O)C[C@@H]4C[C@H](O)CC[C@]4(C)[C@H]3C[C@H](O)[C@]12C [CHOLICACID, METHYLESTER]",–,–,36,15,848,804,–
CNc1ccccc1C(=O)N1CCc2c([nH]c3ccccc23)C1=O [RHETSININE],53,4,–,–,–,–,100 nL (luminescence) [1]: 1076; 200 nL (luminescence) [2]: 532
"O=C1OCCN1/N=C/c1ccc([N+](=O)[O-])o1 [FURAZOLIDONE, reference compound]",43,45,–,–,–,–,100 nL (luminescence): 876; 200 nL (luminescence): 1288
C=C1CC[C@H]2O[C@]2(C)CC[C@@H]2[C@@H]1CC2(C)C [CARYLOPHYLLENEOXIDE],–,–,38,2,874,488,–
"COC(=O)C1=C(C)NC(C)=C(C(=O)OC)C1c1ccccc1[N+](=O)[O-] [NIFEDIPINE, reference compound]",35,-10,–,–,–,–,–
"C[C@]12CCC(=O)C=C1C=C[C@@H]1[C@@H]2CC[C@@]2(C)[C@H]1CC[C@@]21CCC(=O)O1 [CANRENONE, reference compound]",25,23,–,–,–,–,100 nL (luminescence): 900; 200 nL (luminescence): 832
"O=c1c(-c2ccccc2)coc2cc(O)cc(O)c12 [5,7-DIHYDROXYISOFLAVONE]",45,58,–,–,964,1776,–
COc1cc([C@@H]2c3cc4c(cc3[C@H](OC(C)=O)[C@H]3COC(=O)[C@H]23)OCO4)cc(OC)c1OC [PODOPHYLLOTOXINACETATE],–,–,40,10,900,668,–
"CCCSc1ccc2nc(NC(=O)OC)[nH]c2c1 [ALBENDAZOLE, reference compound]",191,272,–,–,–,–,100 nL (luminescence): 4200; 200 nL (luminescence): 5292
"O=S(=O)(O)CCS [MESNA, reference compound]",28,18,–,–,–,–,100 nL (luminescence): 952; 200 nL (luminescence): 612
COC(=O)NC(=S)Nc1ccccc1NC(=S)NC(=O)OC,–,–,40,21,712,836,–
"O=C(O)c1cc(O)c2c(c1)[C@@H]([C@H]1c3cc(C(=O)O)cc(O)c3C(=O)c3c(O[C@H]4O[C@H](CO)[C@@H](O)[C@H](O)[C@H]4O)cccc31)c1cccc(O[C@H]3O[C@H](CO)[C@@H](O)[C@H](O)[C@H]3O)c1C2=O [SENNOSIDEA, reference compound]",141,-24,–,–,–,–,100 nL (luminescence): 3204; 200 nL (luminescence): 4
CC1(C)C(C(Cl)Cl)C2(Cl)C(Cl)C(Cl)C1(Cl)C2(Cl)Cl (stereo not shown) [TOXAPHENE],395,226,–,–,5648,5632,–
"O=C(C=C(O)c1ccccc1)c1ccccc1O [2′,beta-DIHYDROXYCHALCONE]",–,–,112,−18,2064,44,–
